Active and inactive are the calls of the source. The rule behind the calls is not given here.
Tests used:
[1] = Retention time of the compound by HPLC analysis; type: physicochemical
[2] = Chemical stability of the compound in phosphate buffer saline assessed as half life at pH 7.3 by HPLC analysis; type: physicochemical; conditions: phosphate buffered saline
[3] = Prodrug conversion in pH 7.3 phosphate buffer assessed as metabolite formation by measuring half life in presence of pig liver esterase by HPLC analysis; type: ADME; conditions: isolated protein
[4] = Prodrug conversion in human CEM/0 cell extract assessed as metabolite formation by measuring half life by HPLC analysis; type: ADME; conditions: ccrf-cem
[5] = test system: Human immunodeficiency virus 1; assay: Antiviral activity against HIV-1 HE infected in wild-type human CEM/0 cells assessed as inhibition of virus-induced cytopathic effect incubated for 4 to 5 days by light microscopic analysis; type: functional, organism-based; conditions: Human immunodeficiency virus 1, HE, CCRF-CEM
[6] = test system: Human immunodeficiency virus 2; assay: Antiviral activity against HIV-2 ROD infected in wild-type human CEM/0 cells assessed as inhibition of virus-induced cytopathic effect incubated for 4 to 5 days by light microscopic analysis; type: functional, organism-based; conditions: Human immunodeficiency virus 2, ROD, CCRF-CEM
[7] = test system: Human immunodeficiency virus 2; assay: Antiviral activity against HIV-2 ROD infected in thymidine kinase-deficient human CEM cells assessed as inhibition of virus-induced cytopathic effect incubated for 4 to 5 days by light microscopic analysis; type: functional, organism-based; conditions: Human immunodeficiency virus 2, ROD, CCRF-CEM
[8] = Cytotoxicity against human CEM cells assessed as reduction in cell viability incubated for 4 to 5 days by light microscopic analysis; type: toxicity, cell-based; conditions: CEM cells (CCRF-CEM), time 4-5 day
[9] = Selectivity index, ratio of CC50 for human CEM cells to EC50 for HIV-2 ROD infected in thymidine kinase-deficient human CEM cells; type: toxicity; conditions: read-out: Ratio CC50/EC50
[10] = Prodrug conversion in pH 7.3 phosphate buffer assessed as ((2S,5R)-5-(5-methyl-2,4-dioxo-3,4-dihydropyrimidin-1(2H)-yl)-2,5-dihydrofuran-2-yl)methyl tri-hydrogen diphosphate formation by measuring half life in presence of pig liver esterase by HPLC analysis; type: ADME
[11] = Prodrug conversion in human CEM/0 cell extract assessed as ((2S,5R)-5-(5-methyl-2,4-dioxo-3,4-dihydropyrimidin-1(2H)-yl)-2,5-dihydrofuran-2-yl)methyl tri-hydrogen diphosphate formation by HPLC analysis; type: ADME; conditions: ccrf-cem
[12] = test system: Human immunodeficiency virus; assay: Substrate activity at HIV reverse transcriptase measured after 4 hrs by electrophoresis based primer extension assay
[13] = target: T1, DNA polymerase alpha catalytic subunit (Homo sapiens) (UniProt P09884); assay: Substrate activity at human DNA polymerase alpha measured after 4 hrs by electrophoresis based primer extension assay
T1 sequence (whole entry): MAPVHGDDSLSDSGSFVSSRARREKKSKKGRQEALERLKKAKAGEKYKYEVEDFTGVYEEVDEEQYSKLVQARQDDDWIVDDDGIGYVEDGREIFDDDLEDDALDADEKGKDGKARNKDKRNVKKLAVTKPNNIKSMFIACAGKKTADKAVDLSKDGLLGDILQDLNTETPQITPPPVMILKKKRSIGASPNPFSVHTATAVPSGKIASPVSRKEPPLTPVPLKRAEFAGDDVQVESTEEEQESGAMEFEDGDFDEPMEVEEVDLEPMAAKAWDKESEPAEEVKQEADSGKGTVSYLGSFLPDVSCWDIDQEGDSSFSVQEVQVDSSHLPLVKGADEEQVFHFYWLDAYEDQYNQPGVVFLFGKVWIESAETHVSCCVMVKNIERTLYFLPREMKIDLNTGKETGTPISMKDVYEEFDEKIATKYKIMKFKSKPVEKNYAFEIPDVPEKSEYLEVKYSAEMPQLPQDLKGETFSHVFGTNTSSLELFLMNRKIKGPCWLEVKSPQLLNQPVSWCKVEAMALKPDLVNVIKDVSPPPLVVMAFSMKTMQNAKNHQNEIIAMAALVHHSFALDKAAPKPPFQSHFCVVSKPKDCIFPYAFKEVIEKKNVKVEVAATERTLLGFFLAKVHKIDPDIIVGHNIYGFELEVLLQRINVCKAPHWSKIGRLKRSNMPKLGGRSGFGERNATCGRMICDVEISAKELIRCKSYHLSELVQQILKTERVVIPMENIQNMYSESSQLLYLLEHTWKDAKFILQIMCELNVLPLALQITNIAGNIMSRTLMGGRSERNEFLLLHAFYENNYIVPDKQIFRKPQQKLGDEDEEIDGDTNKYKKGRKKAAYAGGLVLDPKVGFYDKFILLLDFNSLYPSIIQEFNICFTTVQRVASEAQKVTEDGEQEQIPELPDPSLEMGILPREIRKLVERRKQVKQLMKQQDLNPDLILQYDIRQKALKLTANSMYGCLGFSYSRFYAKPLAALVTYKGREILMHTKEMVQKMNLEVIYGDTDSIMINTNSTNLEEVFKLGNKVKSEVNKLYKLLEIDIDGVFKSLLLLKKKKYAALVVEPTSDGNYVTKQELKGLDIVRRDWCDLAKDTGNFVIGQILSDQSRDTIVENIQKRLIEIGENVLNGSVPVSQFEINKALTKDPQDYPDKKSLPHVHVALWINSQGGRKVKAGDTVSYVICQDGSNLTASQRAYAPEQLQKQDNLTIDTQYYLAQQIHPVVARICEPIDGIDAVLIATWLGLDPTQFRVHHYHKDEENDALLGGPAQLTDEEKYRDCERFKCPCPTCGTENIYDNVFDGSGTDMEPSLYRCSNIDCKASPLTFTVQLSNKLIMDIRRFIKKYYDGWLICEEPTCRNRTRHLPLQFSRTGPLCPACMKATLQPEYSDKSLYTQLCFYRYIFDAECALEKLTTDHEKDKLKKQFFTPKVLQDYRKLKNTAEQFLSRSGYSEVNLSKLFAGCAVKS

[14] = target: DNA polymerase beta (Homo sapiens) (UniProt P06746); assay: Substrate activity at human DNA polymerase beta measured after 4 hrs by electrophoresis based primer extension assay
[15] = target: T2, DNA polymerase subunit gamma-1 (Homo sapiens) (UniProt P54098); assay: Substrate activity at human DNA polymerase gamma measured after 4 hrs by electrophoresis based primer extension assay
T2 sequence (whole entry): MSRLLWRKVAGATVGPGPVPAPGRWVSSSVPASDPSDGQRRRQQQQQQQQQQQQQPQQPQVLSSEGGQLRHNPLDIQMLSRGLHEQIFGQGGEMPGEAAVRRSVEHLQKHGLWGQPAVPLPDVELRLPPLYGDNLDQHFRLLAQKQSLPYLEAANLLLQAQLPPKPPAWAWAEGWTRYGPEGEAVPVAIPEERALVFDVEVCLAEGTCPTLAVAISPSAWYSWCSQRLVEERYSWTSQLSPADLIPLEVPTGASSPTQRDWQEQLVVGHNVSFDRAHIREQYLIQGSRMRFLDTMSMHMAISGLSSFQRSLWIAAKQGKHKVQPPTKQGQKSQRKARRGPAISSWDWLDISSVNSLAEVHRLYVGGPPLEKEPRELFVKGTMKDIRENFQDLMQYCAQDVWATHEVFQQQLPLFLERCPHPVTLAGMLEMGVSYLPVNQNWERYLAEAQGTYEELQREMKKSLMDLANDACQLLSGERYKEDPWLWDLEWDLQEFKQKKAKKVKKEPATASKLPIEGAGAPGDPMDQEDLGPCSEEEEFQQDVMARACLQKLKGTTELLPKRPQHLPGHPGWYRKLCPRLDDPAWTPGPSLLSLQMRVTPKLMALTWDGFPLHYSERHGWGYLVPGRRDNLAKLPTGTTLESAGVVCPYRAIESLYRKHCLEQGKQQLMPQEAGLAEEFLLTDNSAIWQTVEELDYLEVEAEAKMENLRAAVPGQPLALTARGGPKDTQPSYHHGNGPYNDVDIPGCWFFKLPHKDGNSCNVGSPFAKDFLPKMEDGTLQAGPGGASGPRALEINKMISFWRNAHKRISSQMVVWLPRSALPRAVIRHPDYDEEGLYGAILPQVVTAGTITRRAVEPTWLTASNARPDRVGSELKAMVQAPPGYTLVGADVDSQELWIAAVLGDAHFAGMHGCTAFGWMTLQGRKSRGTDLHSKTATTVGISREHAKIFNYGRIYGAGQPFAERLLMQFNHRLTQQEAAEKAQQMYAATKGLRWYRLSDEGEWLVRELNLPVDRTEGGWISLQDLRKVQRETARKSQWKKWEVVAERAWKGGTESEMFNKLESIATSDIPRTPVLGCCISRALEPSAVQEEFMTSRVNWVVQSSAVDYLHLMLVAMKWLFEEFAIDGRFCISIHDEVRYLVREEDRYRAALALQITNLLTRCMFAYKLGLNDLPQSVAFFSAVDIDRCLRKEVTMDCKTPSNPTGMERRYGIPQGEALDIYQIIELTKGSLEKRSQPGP

Row | Retention_time [1] [min] | half-life [2] [days] | Drug metabolism [4] | EC50 [5] [µM] | EC50 [6] [µM] | EC50 [7] [µM] | t1/2 [3] [h] | t1/2 [4] [h] | t1/2 [10] [h] | Drug metabolism [11] | Activity [12] | Activity [13] | Activity [14] | Activity [15] | SMILES | Drug metabolism [3] | CC50 [8] [µM] | selectivity ratio [9]
1 | 20.3 | 16.9 | – | 0.059 | 0.036 | 0.016 | 0.18 | > 7 | – | – | – | – | – | – | CCCCCCCCCCCCCCCCCCOP(=O)(OCc1ccc(OC(=O)CCCC)cc1)OP(=O)(O)OC[C@@H]1C=C[C@H](n2cc(C)c(=O)[nH]c2=O)O1.N (stereo partly drawn) | – | 50.6 | 3170
2 | 12.5 | 5.46 | – | 0.44 | 0.17 | 19.2 | < 0.01 | 0.36 | – | – | – | – | – | – | CCCCOP(=O)(OCc1ccc(OC(=O)CCCC)cc1)OP(=O)(O)OC[C@@H]1C=C[C@H](n2cc(C)c(=O)[nH]c2=O)O1.N (stereo partly drawn) | – | > 100 | > 5
3 | 15.1 | > 125 | – | 0.33 | 0.068 | 0.001 | – | > 13 | > 150 | Metabolite_Notdetected | inactive | inactive | inactive | inactive | CCCCCCCCCCCCCCCCCCOP(=O)(O)OP(=O)(O)OC[C@@H]1C=C[C@H](n2cc(C)c(=O)[nH]c2=O)O1.N.N | – | > 100 | > 62500
4 | – | – | – | – | – | – | – | – | – | – | Active | – | – | – | Cc1cn([C@H]2C=C[C@@H](COP(=O)(O)OP(=O)(O)O)O2)c(=O)[nH]c1=O | – | – | –

Second part, the compound before the results:

Row | SMILES | Retention_time [1] [min] | half-life [2] [days] | Drug metabolism [4] | EC50 [5] [µM] | EC50 [6] [µM] | EC50 [7] [µM] | t1/2 [3] [h] | t1/2 [4] [h] | t1/2 [10] [h] | Drug metabolism [11] | Activity [12] | Activity [13] | Activity [14] | Activity [15] | Drug metabolism [3] | CC50 [8] [µM] | selectivity ratio [9]
5 | CCCCCCCCCCCCP(=O)(OCc1ccc(OC(=O)CCCC)cc1)OP(=O)(O)OC[C@@H]1C=C[C@H](n2cc(C)c(=O)[nH]c2=O)O1.N (stereo partly drawn) | 16.3 | 29.2 | Metabolite_Notdetected | 0.56 | 0.42 | 0.76 | – | – | – | – | – | – | – | – | Metabolite_Notdetected | 66.7 | 88
6 | CCCCC(=O)Oc1ccc(COP(=O)(OC)OP(=O)(O)OC[C@@H]2C=C[C@H](n3cc(C)c(=O)[nH]c3=O)O2)cc1.N (stereo partly drawn) | 11.3 | 3.5 | Metabolite_Notdetected | 0.43 | 0.41 | 8.95 | – | – | – | – | – | – | – | – | Metabolite_Notdetected | > 100 | > 11
7 | COP(=O)(O)OP(=O)(O)OC[C@@H]1C=C[C@H](n2cc(C)c(=O)[nH]c2=O)O1.N.N | 8.9 | > 125 | Metabolite_Notdetected | 0.52 | 0.18 | 40.4 | – | – | > 150 | Metabolite_Notdetected | – | inactive | inactive | inactive | – | > 100 | > 2
8 | Cc1cn([C@H]2C=C[C@@H](CO)O2)c(=O)[nH]c1=O [STAVUDINE] | – | – | – | – | – | > 50 | – | – | – | – | – | – | – | – | – | > 50 | > 1
9 | CCCCOP(=O)(O)OP(=O)(O)OC[C@@H]1C=C[C@H](n2cc(C)c(=O)[nH]c2=O)O1.N.N | 9.4 | > 125 | – | 0.72 | 0.42 | 43.2 | – | > 30 | > 150 | Metabolite_Notdetected | – | inactive | inactive | inactive | – | > 100 | > 2
10 | CCCCCCCCCCCCP(=O)(O)OP(=O)(O)OC[C@@H]1C=C[C@H](n2cc(C)c(=O)[nH]c2=O)O1.N.N | 12.3 | > 83.3 | – | 0.87 | 0.2 | 12.6 | – | > 30 | > 150 | Metabolite_Notdetected | – | – | – | – | – | > 100 | > 8
11 | CCCCCCCCCCCCOP(=O)(O)OP(=O)(O)OC[C@@H]1C=C[C@H](n2cc(C)c(=O)[nH]c2=O)O1.N.N | 12.6 | > 125 | – | 0.56 | 0.19 | 11 | – | > 30 | > 150 | Metabolite_Notdetected | – | inactive | inactive | inactive | – | > 100 | > 9

— ChEMBL document CHEMBL5365447, “Pronucleotides of 2',3'-Dideoxy-2',3'-Didehydrothymidine as Potent Anti-HIV Compounds” (J Med Chem, 2023)
